In US10407408B2, “Imide derivatives and use thereof as medicine” (MITSUBISHI TANABE PHARMA CORPORATION, priority 2015, dated 2019):

Legend:
[1] = tested on: proMMP-9 production by human TNFα stimulated THP-1 cell; experiment: Action on proMMP-9 production by human TNFα stimulated THP-1 cell (ELISA of culture supernatant); type: cell-based; details: THP-1 cells, human TNFα 10 ng/mL, 24 hr; IC50 from 3 concentrations (5, 50, 500 or 1, 10, 100 nmol/L); read-out: proMMP-9 suppression rate IC50
Protocol: Experimental Example 1: Action of Human TNFα Stimulated THP-1 Cell on proMMP-9 Production
(§1) THP-1 cell (human monocytic leukemia cell line) was adjusted to 1×10^7 cells/mL in a culture medium (10% fetal bovine serum/RPMI1640 medium), and dispensed to a 96 well multiplate. This was equilibrated under the conditions of 37° C./5% CO2, and a culture medium containing human TNFα (final concentration 10 ng/mL) and a test compound was dissolved therein. After incubation under the conditions of 37° C./5% CO2 for 24 hr, the culture medium was centrifuged and the culture supernatant was collected, which was subjected to the following measurement.
Quantification of proMMP-9 in Culture Supernatant
The proMMP-9 concentration of the collected culture supernatant was quantified using a commercially available measurement reagent (manufactured by GE Healthcare, MMP-9, Human, Biotrak ELISA System).
Calculation of proMMP-9 Suppression Rate
The proMMP-9 suppression rate of the test compound was calculated from the following formula: % suppression=100−((Test−Min)/(Max−Min)×100) wherein Max is proMMP-9 concentration of culture supernatant induced by stimulation with human TNFα, without addition of a test compound (added with solvent alone) Min is proMMP-9 concentration of culture supernatant without addition of a test compound (added with solvent alone) and without stimulation with human TNFα, and Test is proMMP-9 concentration of culture supernatant induced by stimulation with human TNFα when a test compound is added.
Furthermore, the concentration of the test compound necessary for suppressing proMMP-9 production by human TNFα stimulated THP-1 cell by 50% (IC50 value) was calculated from 3 points of proMMP-9 suppression rate at test compound concentrations of 5, 50 and 500 nmol/L or 1, 10 and 100 nmol/L.
MMP-9 is produced as a precursor proMMP-9 by the stimulated cells, extracellularly activated and expresses the physiological activity as MMP-9. That is, evaluation of the suppression of proMMP-9 produced by the cell means evaluation of the suppression of production of MMP-9. The same applies to MMP-2, and evaluation of the suppression of proMMP-2 produced by the cell means evaluation of the suppression of production of MMP-2.

[2] = tested on: proMMP-2 production by THP-1 cell; experiment: Action on hemostatic type proMMP-2 production by THP-1 cell (ELISA of culture supernatant); type: cell-based; details: Homo sapiens; THP-1 cells, no stimulation, 24 hr; IC50 from 0.1, 1 and 10 μmol/L; read-out: IC50 value (μmol/L), proMMP-2 production suppression
Protocol: Experimental Example 2: Action of THP-1 Cell on Hemostatic Type proMMP-2 Production
as §1, with “dissolving” for “containing human TNFα (final concentration 10 ng/mL) and”, “added thereto.” for “dissolved therein.”
Quantification of proMMP-2 in Culture Supernatant
The proMMP-2 concentration of the collected culture supernatant was quantified using a commercially available measurement reagent (manufactured by GE Healthcare, MMP-2, Human, Biotrak ELISA System).
Calculation of proMMP-2 Suppression Rate
The proMMP-2 suppression rate of the test compound was calculated from the following formula: % suppress=100−((Test/Cont)×100). wherein Cont is proMMP-2 concentration of culture supernatant without addition of a test compound (added with solvent alone) and Test is proMMP-2 concentration of culture supernatant with addition of a test compound. […]

[3] = tested on: rat monoiodoacetic acid-induced osteoarthritis model; experiment: Suppressive action on joints injury marker COMP in rat monoiodoacetic acid-induced osteoarthritis model; type: in vivo; details: for Joints injury marker COMP suppression rate (%): oral
Protocol: Experimental Example 3 Suppressive Action on Articular Joints Injury Marker Free of Rat Monoiodoacetic Acid-Induced Osteoarthritis Model
Monoiodoacetic acid solution (0.3 mg/25 μL) was injected into the right hindpaw knee joint cavity of anesthetized rats (LEW, male, 7-week-old). […] On day 5, cold phosphate buffer (20 μL) was injected into the right hindpaw knee joint cavity of the euthanized rats, and the joint cavity washing was collected. The joints injury marker COMP (Cartilage Oligomeric Matrix Protein) concentration of the joint cavity washing was quantified using a commercially available measurement reagent (Animal COMP ELISA Kit manufactured by Anamer Medical).
Calculation of Joints Injury Marker COMP Suppression Rate
The COMP suppression rate of the test compound was calculated from the following formula: % suppression=100−((Test−Min)/(Max−Min)×100) wherein Max is a COMP concentration of the joint cavity washing of the pathology group administered with a monoiodoacetic acid solution (oral administration of solvent alone), Min is a COMP concentration of the joint cavity washing of the non-treatment normal group (oral administration of solvent alone), and Test is a COMP concentration of the joint cavity washing of the test compound administration group.

[4] = tested on: mouse dextran sulfuric acid induced colitis model; experiment: Suppressive action on enteritis score (Disease Activity Index, DAI) of mouse dextran sulfuric acid induced colitis model; type: in vivo; details: mouse (C57BL/6J), oral, 30 mg/kg twice per day until day 10; AUC of DAI on days 3, 5, 7 and 10; pathology group 11.75 ± 1.18
Protocol: Experimental Example 4 Suppressive Action on Enteritis Score (Disease Activity Index, DAI) of Mouse Dextran Sulfuric Acid Induced Colitis Model
Mice (C57BL/6J, male, 6-week-old) were allowed to freely ingest 2.0% (w/v) dextran sulfuric acid solution for 5 days, the solution was exchanged with water, and pathology was evaluated on day 10. The test compound was orally administered twice per day at a dose of 30 mg/kg for 5 days of dextran sulfuric acid solution ingestion and thereafter until day 10. On days 3, 5, 7 and 10 from the start of the test, the body weight decrease, stool consistency, and the state of occult blood or gross bleeding were respectively scored in 0-4 points, and the mean of the total score was taken as Disease Activity Index (DAI), an index of enteritis pathology. The diagnostic criteria of the stool consistency score and occult blood or gross bleeding score were as follows.
The evaluation results are shown by the area under the curve (AUC) calculated using DAI on days 3, 5, 7 and 10.

## Cc1cnc(N2CCN(C(=O)c3ccc([C@@]4(C)NC(=O)NC4=O)cc3)CC2)c(C)c1 [Example 1, (R)-5-{4-[4-(3,5-dimethylpyridin-2-yl)piperazine-1-carbonyl]phenyl}-5-methylimidazolidine-2,4-dione]
[1]
  IC50: 27 nM
[2]
  IC50: > 10 µmol/L
[3]; rat (LEW), 1 mg/kg once per day, joint cavity washing on day 5
  Joints injury marker COMP suppression rate (%): 80.9%
[3]; rat monoiodoacetic acid model, both at 1 mg/kg once per day
  superiority in joints injury marker COMP suppression rate compared with Example 450 described in patent document 3: at least 5 fold
[4]
  DAI (AUC): 9.78 ± 0.80

## Cc1cnc(N2CCN(C(=O)c3ccc([C@@]4(C(C)C)NC(=O)NC4=O)cc3)CC2)c(C)c1 [Example 8, (R)-5-{4-[4-(3,5-dimethylpyridin-2-yl)piperazine-1-carbonyl]phenyl}-5-isopropylimidazolidine-2,4-dione]
[3]; rat (LEW), 0.1 mg/kg once per day, joint cavity washing on day 5
  Joints injury marker COMP suppression rate (%): 84.3%
[3]; rat monoiodoacetic acid model, 0.1 mg/kg versus 3 mg/kg once per day
  superiority in joints injury marker COMP suppression rate compared with Example 571 described in patent document 3: at least 30 fold

## Cc1cnc(N2CCN(C(=O)c3ccc(N4C(=O)NC(=O)C4C)cc3)CC2)c(C)c1 (stereo not drawn) [Example 450, reference compound]
[3]; comparison compound of patent document 3 (WO 2011/136292), rat, 1 mg/kg once per day
  Joints injury marker COMP suppression rate (%): 14.4%

## Cc1cnc(N2CCN(C(=O)c3ccc(N4C(=O)NC(=O)C4C(C)C)cc3)CC2)c(C)c1 (stereo not drawn) [Example 571, reference compound]
[3]; comparison compound of patent document 3 (WO 2011/136292), rat, 3 mg/kg once per day
  Joints injury marker COMP suppression rate (%): 55.3%
